Assay results as given in publication PMC5218480 (PLoS ONE, 2017).

System: MV-4-11 cells
Assay: Gene expression microarray analysis (Affymetrix PrimeView) and GSEA
Type: cell-based, human
Design: RFU PODN (11730768_x_at) / Fold change /veh PODN (11730768_x_at) / RFU LINC00158 (11744669_a_at) / Fold change /veh LINC00158 (11744669_a_at) / RFU DUSP10 (11751237_a_at) / Fold change /veh DUSP10 (11751237_a_at) / RFU ID3 (11757404_x_at) / Fold change /veh ID3 (11757404_x_at) / RFU PLEKHG5 (11737974_s_at) / Fold change /veh PLEKHG5 (11737974_s_at) / RFU LRRC4B (11730491_at) / Fold change /veh LRRC4B (11730491_at) / RFU GIMAP4 (11747438_a_at) / Fold change /veh GIMAP4 (11747438_a_at) / RFU KRT8 (11758183_x_at) / Fold change /veh KRT8 (11758183_x_at) / RFU CNN1 (11734310_a_at) / Fold change /veh CNN1 (11734310_a_at) / RFU VPS37D (11726825_at) / Fold change /veh VPS37D (11726825_at) / RFU C10orf10 (11716522_x_at) / Fold change /veh C10orf10 (11716522_x_at) / RFU KIR2DL2 /// KIR2DL4 /// KIR2DL5A /// KIR2DL5B /// KIR2DS1 /// KIR2DS2 /// KIR2DS3 /// KIR2DS4 /// KIR3DL3 /// KIR3DL3 /// KIR3DS1 (11738374_at) / Fold change /veh KIR2DL2 /// KIR2DL4 /// KIR2DL5A /// KIR2DL5B /// KIR2DS1 /// KIR2DS2 /// KIR2DS3 /// KIR2DS4 /// KIR3DL3 /// KIR3DL3 /// KIR3DS1 (11738374_at) / RFU C1QL1 (11718748_at) / Fold change /veh C1QL1 (11718748_at) / RFU TMPRSS4 (11747572_a_at) / Fold change /veh TMPRSS4 (11747572_a_at) / RFU HAMP (11756126_x_at) / Fold change /veh HAMP (11756126_x_at) / RFU RNFT2 (11725882_a_at) / Fold change /veh RNFT2 (11725882_a_at) / RFU NR4A2 (11747474_a_at) / Fold change /veh NR4A2 (11747474_a_at) / RFU ABCC12 (11746883_a_at) / Fold change /veh ABCC12 (11746883_a_at) / RFU TMEM136 (11760407_x_at) / Fold change /veh TMEM136 (11760407_x_at) / RFU CLDN22 /// WWC2 (11732394_at) / Fold change /veh CLDN22 /// WWC2 (11732394_at) / RFU HLA-DPB1 (11760878_x_at) / Fold change /veh HLA-DPB1 (11760878_x_at) / RFU SPINT1 (11716480_a_at) / Fold change /veh SPINT1 (11716480_a_at) / RFU GAP43 (11754022_s_at) / Fold change /veh GAP43 (11754022_s_at) / RFU A4GNT (11735810_at) / Fold change /veh A4GNT (11735810_at) / RFU PRB3 (11715151_x_at) / Fold change /veh PRB3 (11715151_x_at) / RFU TUBB4B (11761932_at) / Fold change /veh TUBB4B (11761932_at) / RFU CAPN14 (11732068_a_at) / Fold change /veh CAPN14 (11732068_a_at) / RFU TMCC2 (11721928_a_at) / Fold change /veh TMCC2 (11721928_a_at) / RFU IRGQ (11745062_a_at) / Fold change /veh IRGQ (11745062_a_at) / RFU FAM174B (11720279_a_at) / Fold change /veh FAM174B (11720279_a_at) / RFU TMPRSS4 (11748680_a_at) / Fold change /veh TMPRSS4 (11748680_a_at) / RFU FAM212B (11763350_a_at) / Fold change /veh FAM212B (11763350_a_at) / RFU PLEKHG5 (11743358_a_at) / Fold change /veh PLEKHG5 (11743358_a_at) / RFU ZSCAN30 (11745921_a_at) / Fold change /veh ZSCAN30 (11745921_a_at) / RFU CMKLR1 (11741424_a_at) / Fold change /veh CMKLR1 (11741424_a_at) / RFU LOC101060620 /// MAPK8IP1 (11723275_at) / Fold change /veh LOC101060620 /// MAPK8IP1 (11723275_at) / RFU SPTSSB (11747773_x_at) / Fold change /veh SPTSSB (11747773_x_at) / RFU PRSS12 (11739890_at) / Fold change /veh PRSS12 (11739890_at) / RFU BIN1 (11741810_x_at) / Fold change /veh BIN1 (11741810_x_at) / RFU WNT11 (11732464_a_at) / Fold change /veh WNT11 (11732464_a_at) / RFU C10orf10 (11716521_a_at) / Fold change /veh C10orf10 (11716521_a_at) / RFU C5orf56 (11738089_at) / Fold change /veh C5orf56 (11738089_at) / RFU CYB561 (11721691_x_at) / Fold change /veh CYB561 (11721691_x_at) / RFU ANKRD19P (11752326_a_at) / Fold change /veh ANKRD19P (11752326_a_at) / RFU OR2T12 /// OR2T33 /// OR2T8 (11738714_s_at) / Fold change /veh OR2T12 /// OR2T33 /// OR2T8 (11738714_s_at) / RFU VCAN (11748164_a_at) / Fold change /veh VCAN (11748164_a_at) / RFU JSRP1 (11732532_at) / Fold change /veh JSRP1 (11732532_at) / RFU KRTAP10-11 (11738290_x_at) / Fold change /veh KRTAP10-11 (11738290_x_at) / RFU MYO3A (11730013_a_at) / Fold change /veh MYO3A (11730013_a_at) / RFU EBF3 (11725865_a_at) / Fold change /veh EBF3 (11725865_a_at) / RFU CAMK2N1 (11719241_x_at) / Fold change /veh CAMK2N1 (11719241_x_at) / RFU C5orf56 (11738088_a_at) / Fold change /veh C5orf56 (11738088_a_at) / RFU OLFML3 (11715873_a_at) / Fold change /veh OLFML3 (11715873_a_at) / RFU LOC100653217 /// NTM (11731650_a_at) / Fold change /veh LOC100653217 /// NTM (11731650_a_at) / RFU MAPK11 (11762145_a_at) / Fold change /veh MAPK11 (11762145_a_at) / RFU FIZ1 (11724087_x_at) / Fold change /veh FIZ1 (11724087_x_at) / RFU OASL (11726364_x_at) / Fold change /veh OASL (11726364_x_at) / RFU SOX15 (11748057_x_at) / Fold change /veh SOX15 (11748057_x_at) / RFU CD79A (11719716_a_at) / Fold change /veh CD79A (11719716_a_at) / RFU HIST1H1D (11736915_at) / Fold change /veh HIST1H1D (11736915_at) / RFU CASKIN2 (11723855_a_at) / Fold change /veh CASKIN2 (11723855_a_at) / RFU LOC730098 (11760151_x_at) / Fold change /veh LOC730098 (11760151_x_at) / RFU OR4N2 (11742367_at) / Fold change /veh OR4N2 (11742367_at) / RFU PRRT2 (11749266_a_at) / Fold change /veh PRRT2 (11749266_a_at) / RFU SNX32 (11753110_a_at) / Fold change /veh SNX32 (11753110_a_at) / RFU CDHR5 (11726645_a_at) / Fold change /veh CDHR5 (11726645_a_at) / RFU RCAN1 (11760418_a_at) / Fold change /veh RCAN1 (11760418_a_at) / RFU FAM167A (11723789_a_at) / Fold change /veh FAM167A (11723789_a_at) / RFU FAM26E (11764081_at) / Fold change /veh FAM26E (11764081_at) / RFU ISYNA1 (11749810_s_at) / Fold change /veh ISYNA1 (11749810_s_at) / RFU ACY1 (11761880_at) / Fold change /veh ACY1 (11761880_at) / RFU 11764098_at / Fold change /veh 11764098_at / RFU SAMD14 (11745864_x_at) / Fold change /veh SAMD14 (11745864_x_at) / RFU NPB (11741838_a_at) / Fold change /veh NPB (11741838_a_at) / RFU TMPRSS6 (11731388_a_at) / Fold change /veh TMPRSS6 (11731388_a_at) / RFU KRTAP10-2 (11738614_at) / Fold change /veh KRTAP10-2 (11738614_at) / RFU ARHGAP8 /// PRR5-ARHGAP8 (11727945_x_at) / Fold change /veh ARHGAP8 /// PRR5-ARHGAP8 (11727945_x_at) / RFU KRTAP5-7 /// NADSYN1 (11734609_at) / Fold change /veh KRTAP5-7 /// NADSYN1 (11734609_at) / RFU RASL12 (11751679_a_at) / Fold change /veh RASL12 (11751679_a_at) / RFU CDKN2B (11736163_a_at) / Fold change /veh CDKN2B (11736163_a_at) / RFU PRF1 (11729649_at) / Fold change /veh PRF1 (11729649_at) / RFU, ZNF638 /// ZNF638-IT1 / Fold change vs veh, ZNF638 /// ZNF638-IT1 / RFU, PANK3 / Fold change vs veh, PANK3 / RFU, SH3YL1 / Fold change vs veh, SH3YL1 / RFU, ZEB2 / Fold change vs veh, ZEB2 / RFU, NRIP1 / Fold change vs veh, NRIP1 / RFU, PTTG1IP / Fold change vs veh, PTTG1IP / RFU, CAPN2 / Fold change vs veh, CAPN2 / RFU, MED14 / Fold change vs veh, MED14 / RFU, SNORA58 / Fold change vs veh, SNORA58 / RFU, C1orf63 / Fold change vs veh, C1orf63 / RFU, LRRFIP1 / Fold change vs veh, LRRFIP1 / RFU, NDUFAF7 / Fold change vs veh, NDUFAF7 / RFU, SLC12A2 / Fold change vs veh, SLC12A2 / RFU, IBTK / Fold change vs veh, IBTK / RFU, ESF1 / Fold change vs veh, ESF1 / Fold change vs veh, TMEM50B / RFU, TAOK1 / Fold change vs veh, TAOK1 / RFU, ACBD3 / Fold change vs veh, ACBD3 / RFU, TMA16 / Fold change vs veh, TMA16 / RFU, RWDD3 / Fold change vs veh, RWDD3 / RFU, BCAT1 / Fold change vs veh, BCAT1 / RFU, EDEM3 / Fold change vs veh, EDEM3 / RFU, TMEM33 / Fold change vs veh, TMEM33 / RFU, WDR75 / Fold change vs veh, WDR75 / RFU, AHCTF1 / Fold change vs veh, AHCTF1 / RFU, TFRC / Fold change vs veh, TFRC / RFU, ZDHHC17 / Fold change vs veh, ZDHHC17 / RFU, NOM1 / Fold change vs veh, NOM1 / RFU, ARL8B / Fold change vs veh, ARL8B / RFU, ZBTB11 / Fold change vs veh, ZBTB11 / RFU, TAMM41 / Fold change vs veh, TAMM41 / RFU, KIAA1704 /// LOC100996395 / Fold change vs veh, KIAA1704 /// LOC100996395 / RFU, ING1 / Fold change vs veh, ING1 / RFU, TRMT61B / Fold change vs veh, TRMT61B / RFU, FUBP3 / Fold change vs veh, FUBP3 / RFU, TP53 / Fold change vs veh, TP53 / RFU, TNKS2 / Fold change vs veh, TNKS2 / RFU, ZFP14 / Fold change vs veh, ZFP14 / RFU, ACTR2 / Fold change vs veh, ACTR2 / RFU, PPP3R1 / Fold change vs veh, PPP3R1 / RFU, PIK3R1 / Fold change vs veh, PIK3R1 / RFU, HNRNPA1 / Fold change vs veh, HNRNPA1 / RFU, RNF170 / Fold change vs veh, RNF170 / RFU, ZNF28 / Fold change vs veh, ZNF28 / RFU, RNGTT / Fold change vs veh, RNGTT / RFU, OGT / Fold change vs veh, OGT / RFU, BRD1 / Fold change vs veh, BRD1 / RFU, MARS / Fold change vs veh, MARS / RFU, ZNF655 / Fold change vs veh, ZNF655 / RFU, FAHD1 / Fold change vs veh, FAHD1 / RFU, BDP1 / Fold change vs veh, BDP1 / RFU, LRRCC1 / Fold change vs veh, LRRCC1 / RFU, ARID1A / Fold change vs veh, ARID1A / RFU, ZNF146 / Fold change vs veh, ZNF146 / RFU, ZNF330 / Fold change vs veh, ZNF330 / RFU, GPN3 / Fold change vs veh, GPN3 / RFU, C9orf123 / Fold change vs veh, C9orf123 / RFU, N4BP2L2 / Fold change vs veh, N4BP2L2 / RFU, ARFIP1 / Fold change vs veh, ARFIP1 / RFU, FAM179B / Fold change vs veh, FAM179B / RFU, BCL10 / Fold change vs veh, BCL10 / RFU, UHRF1BP1L / Fold change vs veh, UHRF1BP1L / RFU, BET1 / Fold change vs veh, BET1 / RFU, CNOT2 / Fold change vs veh, CNOT2 / RFU, ZNF268 / Fold change vs veh, ZNF268 / Fold change vs veh, ZNF507 / RFU, DGCR2 / Fold change vs veh, DGCR2 / RFU, WDSUB1 / Fold change vs veh, WDSUB1 / Fold change vs veh, HSP90B1 /// MIR3652 / RFU, ADSS / Fold change vs veh, ADSS / RFU, GK / Fold change vs veh, GK / RFU, ZNF148 / Fold change vs veh, ZNF148 / RFU, TAF9 / Fold change vs veh, TAF9 / RFU, SLC1A5 / Fold change vs veh, SLC1A5 / RFU, SLMO2 / Fold change vs veh, SLMO2 / RFU, ABCC4 / Fold change vs veh, ABCC4 / RFU, LOC101060439 /// RAP1B / Fold change vs veh, LOC101060439 /// RAP1B / RFU, RFX7 / Fold change vs veh, RFX7 / RFU, GTPBP10 / Fold change vs veh, GTPBP10 / RFU, CNEP1R1 / Fold change vs veh, CNEP1R1 / RFU, BIVM-ERCC5 /// ERCC5 / Fold change vs veh, BIVM-ERCC5 /// ERCC5 / RFU, ILF3 / Fold change vs veh, ILF3 / RFU 11762660_at / Fold change /veh 11762660_at / RFU VCAN (11757783_s_at) / Fold change /veh VCAN (11757783_s_at) / RFU DDX43 (11728927_at) / Fold change /veh DDX43 (11728927_at) / RFU KRT8 (11758188_x_at) / Fold change /veh KRT8 (11758188_x_at) / RFU NKD1 (11759106_at) / Fold change /veh NKD1 (11759106_at) / RFU SRD5A1 (11742802_a_at) / Fold change /veh SRD5A1 (11742802_a_at) / RFU TPSAB1 /// TPSB2 (11721975_s_at) / Fold change /veh TPSAB1 /// TPSB2 (11721975_s_at) / RFU GSTM3 (11746129_a_at) / Fold change /veh GSTM3 (11746129_a_at) / RFU IL23R (11737362_x_at) / Fold change /veh IL23R (11737362_x_at) / RFU TMEM51 (11727254_a_at) / Fold change /veh TMEM51 (11727254_a_at) / RFU PIWIL2 (11732686_x_at) / Fold change /veh PIWIL2 (11732686_x_at) / RFU ORM1 (11744905_x_at) / Fold change /veh ORM1 (11744905_x_at) / RFU CCDC152 (11743942_at) / Fold change /veh CCDC152 (11743942_at) / RFU ECM1 (11717891_a_at) / Fold change /veh ECM1 (11717891_a_at) / RFU IL23R (11748794_a_at) / Fold change /veh IL23R (11748794_a_at) / RFU TNFAIP8L3 (11732012_x_at) / Fold change /veh TNFAIP8L3 (11732012_x_at) / RFU MBOAT4 (11741988_at) / Fold change /veh MBOAT4 (11741988_at) / RFU 11764193_at / Fold change /veh 11764193_at / RFU TMEM53 (11763286_at) / Fold change /veh TMEM53 (11763286_at) / RFU MAGEB2 (11727129_at) / Fold change /veh MAGEB2 (11727129_at) / RFU TMEM200A (11744735_a_at) / Fold change /veh TMEM200A (11744735_a_at) / RFU CCDC152 (11751479_a_at) / Fold change /veh CCDC152 (11751479_a_at) / RFU FAM211A (11726209_a_at) / Fold change /veh FAM211A (11726209_a_at) / RFU RGS16 (11746705_a_at) / Fold change /veh RGS16 (11746705_a_at) / RFU VCAN (11755009_s_at) / Fold change /veh VCAN (11755009_s_at) / RFU RHOB (11743442_s_at) / Fold change /veh RHOB (11743442_s_at) / RFU RGS16 (11720943_a_at) / Fold change /veh RGS16 (11720943_a_at) / RFU RGS16 (11720944_at) / Fold change /veh RGS16 (11720944_at) / RFU, VPS4B / Fold change vs veh, VPS4B / RFU, CREB1 / Fold change vs veh, CREB1 / RFU, DNAJC13 / Fold change vs veh, DNAJC13 / RFU, GNAQ / Fold change vs veh, GNAQ / RFU, CDK5R1 / Fold change vs veh, CDK5R1 / RFU, ZRANB3 / Fold change vs veh, ZRANB3 / RFU, CUL4A / Fold change vs veh, CUL4A / RFU, CCNY / Fold change vs veh, CCNY / RFU, UFL1 / Fold change vs veh, UFL1 / RFU, COG3 / Fold change vs veh, COG3 / RFU, DIAPH2 / Fold change vs veh, DIAPH2 / RFU, SKA2 / Fold change vs veh, SKA2 / RFU, AFF3 / Fold change vs veh, AFF3 / RFU, LMF1 / Fold change vs veh, LMF1 / RFU, IPO11 / Fold change vs veh, IPO11 / RFU, DFFB / Fold change vs veh, DFFB / RFU, FOXP1 / Fold change vs veh, FOXP1 / RFU, CARD8 / Fold change vs veh, CARD8 / RFU, STRN3 / Fold change vs veh, STRN3 / RFU, ADK / Fold change vs veh, ADK / RFU, RASSF2 / Fold change vs veh, RASSF2 / RFU, WIPF1 / Fold change vs veh, WIPF1 / RFU, LARP1B / Fold change vs veh, LARP1B / RFU, RASA1 / Fold change vs veh, RASA1 / RFU, RB1 / Fold change vs veh, RB1 / RFU, PPFIA1 / Fold change vs veh, PPFIA1 / RFU, MAT2A / Fold change vs veh, MAT2A / RFU, CCT5 / Fold change vs veh, CCT5 / RFU, WDR92 / Fold change vs veh, WDR92 / RFU, CUX1 / Fold change vs veh, CUX1 / RFU, TTC7A / Fold change vs veh, TTC7A / RFU, TMEM135 / Fold change vs veh, TMEM135 / RFU, DEPTOR / Fold change vs veh, DEPTOR / RFU, CPM / Fold change vs veh, CPM / RFU, DNAJB6 / Fold change vs veh, DNAJB6 / RFU, CACNA2D3 / Fold change vs veh, CACNA2D3 / RFU, DTX4 / Fold change vs veh, DTX4 / RFU, TFCP2 / Fold change vs veh, TFCP2 / RFU, GMCL1 /// GMCL1P1 / Fold change vs veh, GMCL1 /// GMCL1P1 / RFU, AEBP2 / Fold change vs veh, AEBP2 / RFU, SNHG1 /// SNORD22 /// SNORD25 /// SNORD26 /// SNORD27 /// SNORD28 /// SNORD29 /// SNORD31 / Fold change vs veh, SNHG1 /// SNORD22 /// SNORD25 /// SNORD26 /// SNORD27 /// SNORD28 /// SNORD29 /// SNORD31 / Fold change (Aza/veh), C12orf56 (ProbeSet 11735607_a_at) / Fold change (ACY-1035/veh), C12orf56 (ProbeSet 11735607_a_at) / Fold change (Aza/veh), FGFR1OP (ProbeSet 11751329_s_at) / Fold change (ACY-1035/veh), FGFR1OP (ProbeSet 11751329_s_at) / Fold change (Aza/veh), VPS36 (ProbeSet 11739960_a_at) / Fold change (ACY-1035/veh), VPS36 (ProbeSet 11739960_a_at) / RFU SYPL1 (11715823_x_at) / Fold change /veh SYPL1 (11715823_x_at) / RFU IGFBP7 (11715501_s_at) / Fold change /veh IGFBP7 (11715501_s_at) / RFU REEP3 (11722064_at) / Fold change /veh REEP3 (11722064_at) / RFU IGLL1 (11728026_x_at) / Fold change /veh IGLL1 (11728026_x_at): dose or concentration left out as unconfirmed
Settings: MV-4-11 cells, 48 hours

## Nc1ccc(-c2cccs2)cc1NC(=O)c1ccc2c(c1)cc(C1CC1)n2CCN1CCOCC1 [ACY-1035]
  RFU RNFT2 (11725882_a_at): 13.97 RFU
